{"source": "patent US10975355B2", "about": "“Controlled induction of human pancreatic progenitors produces functional beta-like cells” (THE REGENTS OF THE UNIVERSITY OF CALIFORNIA, priority 2015, dated 2021)", "molecules": {"B1": {"name": "N: the BMP inhibitor Noggin (N) (protein, UniProt Q13253 28-232, looked up)", "Noggin": "QHYLHIRPAPSDNLPLVDLIEHPDPIFDPKEKDLNETLLRSLLGGHYDPGFMATSPPEDRPGGGGGAAGGAEDLAELDQLLRQRPSGAMPSEIKGLEFSEGLAQGKKQRLSKKLRRKLQMWLWSQTFCPVLYAWNDLGSRFWPRYVKVGSCFSKRSCSVPEGMVCKPSKSVHLTVLRWRCQRRGGQRCGWIPIQYPIISECKCSC"}}, "assay_type_in_all_cases": "cell-based, human", "key": {"[1]": {"test_system": "MEL1 INS^GFP/W reporter cells (hESC)", "assay": "Flow cytometric analysis of pancreatic progenitor/endocrine markers in differentiating hESC spheres", "details": "for generation of PDX1+ cells over base media alone: group 1, factor alone days 6-8 (conditions 2 and 3), day 9.5", "experimental": "Undifferentiated MEL1 INS^GFP/W reporter cells (Micallef et al, 2012) were maintained on mouse embryo fibroblast feeder layers (Millipore) in hESC media as described (Guo et al, 2013b). Suspension-based differentiations were carried out as follows. Briefly, confluent cultures were dissociated into single cell suspension by incubation with TrypLE (Gibco). Cells were counted and each well of 6-well low-adherence plates were seeded with 5.5×10^6 cells in 5.5 ml hES media supplemented with 10 ng/ml Activin A (R&D systems) and 10 ng/ml HeregulinB1 (Peprotech). Plates were placed on an orbital shaker at 100 rpm to induce sphere formation, as described (Schulz et al, 2012). To induce definitive endoderm differentiation, aggregates were collected 24 hours later in a 50 ml falcon tube, allowed to settle by gravity, washed once with PBS and re-suspended in d1 media (RPMI (Gibco) containing 0.2% FBS, 1:5000 ITS (Gibco), 100 ng/ml Activin A, and 50 ng/ml WNT3a (R&D systems)). Clusters from 3 wells were combined into 2 wells at this point and distributed into fresh low-attachment plates in 5.5 ml d1 media. Media thereafter was changed daily, by removing either 4.5 ml media (at the end of d1) or 5.5 ml media the following days and adding back 5.5 ml fresh media until day 9. After day 9, only 5 ml of media was removed and added daily.\nBriefly, spheres were collected and allowed to settle by gravity. Clusters were washed once in PBS and dissociated by gentle pipetting after 12-15 minutes incubation in Accumax (innovative cell technologies). For sorting, cell suspension were filtered and re-suspended in FACS buffer consisting of phosphate-buffered saline (PBS) (UCSF cell culture facility) containing 2 mM EDTA (Ambion) and 1% BSA (Sigma). Dead cells were excluded by DAPI (Sigma) staining. Cell sorting was performed on a FACS Aria II (BD Bioscience). For flow-based analysis, dissociated cells were fixed with 4% paraformaldehyde (Electron Microscopy Science) for 15 minutes at room temperature, followed by two washes in PBS. Samples were either stored at 4 C or immediately stained with directly conjugated antibodies. Data analysis was performed with FlowJo software. Mouse Glucagon and mouse human C-peptide antibodies were conjugated in-house by the UCSF Antibody Core and/or with Antibody Labeling Kits (Molecular Probes) according to manufacturer's instructions. […]\nTo characterize the type of progenitors present in differentiating cultures at the point of endocrine induction, we performed a detailed time course analysis for the expression of pancreatic markers PDX1, NKX6.1, NEUROG3, GCG and INS (FIG. 7). […] Indeed, the expression of NEUROG3 can be detected as early as day 6, when NKX6.1 protein is absent from all cells (FIGS. 7A and B). […]"}, "[2]": {"test_system": "NEUROG3 and NKX2.2 mRNA transcripts", "assay": "qPCR analysis of NEUROG3 and NKX2.2 transcripts at day 8 of differentiation", "details": "day 8, compared to RCN condition / during RCN or R treatment", "experimental": "Total RNA was isolated with TRIZOL (Sigma) or micro/mini RNAeasy kit (Qiagen) and reverse transcribed using the iScript cDNA Kit (Bio-Rad) according to manufacturer's instructions. qPCR analysis was performed on an ABI 7900 HT Fast Real-Time PCR System (Applied Biosystems) and CFX Connect Real Time System (Biorad) using standard protocols. Primers were Taqman Probes (Applied Biosystems) and/or as published previously (Liu et al, 2014). P-values were calculated using a two-tailed student's t-test.\nTo characterize the type of progenitors present in differentiating cultures at the point of endocrine induction, we performed a detailed time course analysis for the expression of pancreatic markers PDX1, NKX6.1, NEUROG3, GCG and INS (FIG. 7). […] Indeed, the expression of NEUROG3 can be detected as early as day 6, when NKX6.1 protein is absent from all cells (FIGS. 7A and B). […] We thus expected that robust generation of PDX1+/NKX6.1+ progenitor cells prior to induction of NEUROG3 would allow efficient generation of beta-like cells in vitro. […] Spheres cultured under each condition were analyzed at day 9.5 by flow cytometry to quantify the expression of PDX1 and NKX6.1, and by conventional immunofluorescence analysis for NKX6.1 and NEUROG3 expression. […]"}, "[3]": {"test_system": "NEUROG3 expression in hESC-derived clusters", "assay": "Immunofluorescence (whole mount / sections) for NEUROG3 protein in differentiated clusters", "details": "day 9.5, whole mount staining", "experimental": "Spheres were fixed for 15-30 minutes at room temperature with 4% paraformaldehyde, followed by multiple washes in PBS. Whole mount staining was performed in suspension, by first blocking overnight at 4° C. in blocking buffer consisting of CAS-block (Invitrogen) with 0.2% TritonX (Fisher). Primary antibodies were incubated overnight at 4° C. in blocking buffer, followed by washes in PBS containing 0.1% Tween-20 (PBS-T, Sigma) and incubation in appropriate secondary antibodies diluted in PBS-T overnight at 4° C. The next day, clusters were washed in PBS-T followed by PBS and mounted with Vectashield (Vector) on glass slides. For sectioning of clusters, spheres were embedded in 2% Agar (Sigma), followed by dehydration, paraffin embedding, and sectioning. […]\nTo characterize the type of progenitors present in differentiating cultures at the point of endocrine induction, we performed a detailed time course analysis for the expression of pancreatic markers PDX1, NKX6.1, NEUROG3, GCG and INS (FIG. 7). […] Indeed, the expression of NEUROG3 can be detected as early as day 6, when NKX6.1 protein is absent from all cells (FIGS. 7A and B). […] Spheres cultured under each condition were analyzed at day 9.5 by flow cytometry to quantify the expression of PDX1 and NKX6.1, and by conventional immunofluorescence analysis for NKX6.1 and NEUROG3 expression. […]"}}, "data": [{"molecule": "CC1=C2C[C@H]3[C@@H](CC=C4C[C@@H](O)CC[C@@]43C)[C@@H]2CC[C@]12O[C@@H]1C[C@H](C)CN[C@H]1[C@H]2C", "note": "[C, Cyclopamine]", "values": [{"measurement": "generation of PDX1+ cells over base media alone", "setting": "[1]", "value": "did not result in enhanced generation of PDX1+ cells"}]}, {"molecule": "O=C1O[C@H]([C@@H](O)CO)C(O)=C1O", "note": "[Vitamin C]", "values": [{"measurement": "NEUROG3 and NKX2.2 mRNA transcripts", "setting": "[2]", "value": "did not significantly lower"}]}, {"molecule": "CC1=C(/C=C/C(C)=C/C=C/C(C)=C/C(=O)O)C(C)(C)CCC1", "note": "[retinoic acid]", "values": [{"measurement": "PDX1 positive progenitors", "setting": "[1]; group 1, exposure days 6-8, alone or combined (conditions 4, 5, 6), analysed day 9.5", "value": "> 88", "unit": "%"}, {"measurement": "PDX1+ pancreatic progenitors generated", "setting": "[1]; retinoic acid alone", "value": "more than 98%"}]}, {"molecule": "B1", "values": [{"measurement": "generation of PDX1+ cells over base media alone", "setting": "[1]", "value": "did not result in enhanced generation of PDX1+ cells"}, {"measurement": "formation of NEUROG3 positive endocrine precursors", "setting": "[3]", "value": "induced"}]}]}
